“And” between values parts separate entries of the source, which are not always exact repeats. Equal values may be shown once.
system: S. Typhi PhoP-promoter GFP reporter, fluorescence, 4 h; test: modified counter assay using GFP fluorescence, PhoP regulon inhibitor project, dose response (AID 1985)

Compound | IC50
CN1CCN(CCCN2c3ccccc3Sc3ccc(Cl)cc32)CC1 | 132 µM and 79.2 µM
O=C(Nc1cccnc1)c1cc(Br)c(Br)s1 | 134 µM
CC(/C=N/Nc1nc2ccccc2[nH]1)=C\c1ccccc1 | 71.8 µM
N#Cc1nc(Cc2cccc3ccccc23)oc1NCCCN1CCOCC1 | 62 µM
COc1nccnc1NS(=O)(=O)c1ccc(N=Cc2c(C)[nH]n(-c3ccc(C)c(C)c3)c2=O)cc1 | 114 µM
COc1cc([N+](=O)[O-])cc(/C=N/NC(=O)C(C)Nc2cccc(C)c2)c1O (stereo unspecified) | 71.6 µM
OC(CNCCc1ccccc1)COc1ccc(OCC(O)CNCCc2ccccc2)cc1 (stereo unspecified) | 21.2 µM
CCN1c2ccccc2NC2N=C(OC)C(c3ccccc3)C21 (stereo unspecified) | 55.8 µM
Nc1nonc1C(=O)NCCN=Cc1cc(Cc2ccccc2)cc(Br)c1O | 83.3 µM
Cc1occc1C(=O)N/N=C/c1cccs1 | 45.7 µM
OC1CNCc2cc3c(cc21)OCCO3 (stereo unspecified) | 80.8 µM
O=c1oc2ccccc2nc1/C=C(\O)c1ccccc1 | 23.9 µM
O=C(C[n+]1cc(-c2ccccc2)n2c1CCC2)Nc1nc(-c2ccc(F)cc2)cs1 | 141 µM
CSc1nc2cc(Oc3cccc(Cl)c3Cl)c(Cl)cc2[nH]1 | 57.8 µM
C#CCOCCOCCOCCNc1nc(N2CCN(C(=O)[C@H](Cc3cc4ccccc4[nH]3)n3cc([C@@H](N)CC(C)C)nn3)CC2)nc(N2CCN(C(=O)[C@H](Cc3cc4ccccc4[nH]3)n3cc([C@@H](N)CC(C)C)nn3)CC2)n1 | 67.5 µM
CN(C)CCCNC(=S)NCC(c1ccc(Cl)cc1Cl)c1c[nH]c2ccccc12 (stereo unspecified) | 36.5 µM
Cn1c(N/N=C/c2c[nH]c3ccccc23)nc2ccccc21 | 113 µM
O=C(c1ccccc1)c1c2c(cc3sc4ccccc4[n+]13)-c1cccc3cccc-2c13 | 77.3 µM
Fc1ccc(Nc2nnc(C(F)(F)F)s2)cc1Cl | 38 µM
CCOC(=O)N/N=C(/C)c1ccc([N+](=O)[O-])o1 | 45.8 µM
O=C(Nc1cccc([N+](=O)[O-])c1)Nc1cccs1 | 45.6 µM
NC(=NCCCCCCN=C(N)/N=C(\N)Nc1ccc(Cl)cc1)/N=C(\N)Nc1ccc(Cl)cc1 | 3.89 µM and 3.25 µM and 5.35 µM
O=C(CC1NCCc2ccccc21)Nc1ccc(Oc2ccccc2)cc1 (stereo unspecified) | 79.9 µM

Compound | IC50
COc1cccc(/C=N/NC(=O)C(=O)N2CCCC2)c1O | 101 µM
N#C/C(=N\Nc1ccc([N+](=O)[O-])cc1)C(N)=S | 110 µM
CN(C)c1ccc(/C=C/c2ccc3ccccc3[n+]2C)cc1 | 19.5 µM
O=c1[nH]c(=S)ccn1C1OC(CO)C(O)C1O (stereo unspecified) | 1.74 µM
CC1CCc2cc(F)cc3c(=O)c(C(=O)O)cn1c23 (stereo unspecified) | 9.57 µM
CCN(CC(=O)NC(C)(C)C)C(=O)COc1c(Cl)cc(Cl)c2ccc(C)nc12 | 43.5 µM
NC(N)=Nc1nc(-c2ccccc2)c2cc(Cl)ccc2n1 | 97.8 µM
O=C1Nc2ccccc2C1=Nc1ccc(S(=O)(=O)Nc2nccs2)cc1 | 90.1 µM
COc1ccc(C2NCCc3c2[nH]c2ccccc32)cc1COc1ccc(F)cc1 (stereo unspecified) | 78.5 µM
O=C1C(=O)c2ccccc2-c2ccccc21 | 19 µM
C=C1c2cccc(O)c2C(O)=C2C(=O)[C@]3(O)C(O)=C(C(N)=O)C(=O)[C@@H](N(C)C)[C@@H]3[C@@H](O)[C@H]12 | 0.376 µM
CCCCCc1ccc(OCCCC[n+]2ccccc2)c(CCCCC)c1 | 74.5 µM
COc1ccc(NC(=O)COC(=O)c2ccc([N+](=O)[O-])o2)cc1Cl | 46.8 µM
Nn1cnnc1N/N=C\c1ccc(-c2ccccc2[N+](=O)[O-])o1 | 29 µM
[O-][n+]1cccc2c(Br)cc(Br)c(O)c21 | 21.9 µM
O=C(Nc1nnc(-c2cccs2)o1)c1cccc(Oc2ccccc2)c1 | 39.9 µM
Cc1c(N2C(=O)/C(=C3\C(=O)N(CC(=O)O)c4ccccc43)SC2=S)c(=O)n(-c2ccccc2)n1C | 91.6 µM
O=C(CCN1CCN(c2ccccc2)CC1)N/N=C/c1ccc([N+](=O)[O-])o1 | 70.2 µM
OCCNCc1cc(Br)ccc1OCc1ccc(Cl)cc1 | 121 µM
CCn1nc(C(=O)O)c(=O)c2cc3c(cc21)OCO3 | 103 µM
COc1ccc(/C=N/Nc2cc(C)nc3c(C)cccc23)cc1 | 37.2 µM
NC1=NC[C@H](c2ccccc2)N1CCCCC1CCCCC1 | 38.5 µM
O=C(Cn1cnc2ccccc21)Nc1ccc(SC(F)F)cc1 | 78 µM

Compound | IC50
O=[N+]([O-])c1cccc(NNS(=O)(=O)c2ccccc2F)c1 | 8.04 µM
Cc1ccc(-c2cc(-c3ccc(C)cc3)[n+](-c3ccccc3)c(-c3ccc(C)cc3)c2)cc1 | 34.5 µM
CC(NCC(O)COc1ccc2ccccc2c1)c1ccccc1 (stereo unspecified) | 132 µM
COc1ccc(C(=O)NC(=S)NNC(=O)c2cnccn2)cc1 | 80.5 µM
CC[n+]1c(/C=C/C=C/c2ccc(N(C)C)cc2)sc2ccccc21 | 35.7 µM
O=C(O)c1sccc1Oc1ccc(F)cc1[N+](=O)[O-] | 12.6 µM
CC(=O)NC(c1cccc([N+](=O)[O-])c1)c1ccc2cccnc2c1O (stereo unspecified) | 98.9 µM
CN(C)[C@@H]1C(=O)C(C(N)=O)=C(O)[C@@]2(O)C(=O)C3=C(O)c4c(O)cccc4[C@@](C)(O)C3[C@H](O)C12 (stereo partly specified) | 2.99 µM
Cc1ccc(C(C[N+](=O)[O-])Sc2ccc(N)cc2)cc1 (stereo unspecified) | 29.5 µM
O=C1OCCN1/N=C/c1ccc([N+](=O)[O-])o1 | 13.4 µM
CCCc1nnc(NC(=O)c2cn(CC)c3cc(N4CCN(C)CC4)c(F)cc3c2=O)s1 | 41.2 µM
C#CCOCCOCCOCCNc1nc(N2CCN(C(=O)[C@H](Cc3ccc(O)cc3)n3cc([C@@H](N)CC(C)C)nn3)CC2)nc(N2CCN(C(=O)[C@H](Cc3ccc(O)cc3)n3cc([C@@H](N)CC(C)C)nn3)CC2)n1 | 112 µM
O=Cc1c(Cl)nc2ccccn2c1=O | 132 µM
COc1cc(/C=C2/C(=O)NN(c3ccc(C)c(Cl)c3)C2=O)cc([N+](=O)[O-])c1O | 46.6 µM
C#CCOCCOCCOCCNc1nc(N2CCN(C(=O)[C@H](Cc3cc4ccccc4[nH]3)n3cc([C@@H](N)C(C)CC)nn3)CC2)nc(N2CCN(C(=O)[C@H](Cc3cc4ccccc4[nH]3)n3cc([C@@H](N)CC(C)C)nn3)CC2)n1 (stereo partly specified) | 54.5 µM
CSc1ccc2c(c1)C(N1CCN(C)CC1)Cc1ccccc1S2 (stereo unspecified) | 55.6 µM
CCS(=O)(=O)c1ccc2oc(=O)c(/C=C(\O)c3ccc(Cl)cc3)nc2c1 | 65.1 µM
Nc1cc(Cl)c2nonc2c1[N+](=O)[O-] | 19.6 µM
O=C(Oc1c(Cl)cc(Cl)c2cccnc12)c1ccco1 | 11.9 µM
O=C(CSc1nnc(-c2ccccc2)n1-c1ccc(Cl)cc1)NC1CCS(=O)(=O)C1 (stereo unspecified) | 31.2 µM
O=C(Nc1cccc(N=Cc2cc(Cl)cc(Br)c2O)c1)c1ccco1 | 94.3 µM
COC(=O)C1=C(C)N(Cc2ccccc2)C(=NCc2cccc(C(F)(F)F)c2)N[C@H]1c1cccc(F)c1 | 86.1 µM
O=C(C[n+]1cc(-c2ccc(Cl)cc2)n2c1CCC2)Nc1nc(-c2ccccc2)cs1 | 36.7 µM

Compound | IC50
Cc1cc(Br)ccc1OCCCCNCCO | 61.8 µM
CCOc1ccc(Nc2nc(NCC3CCCO3)c3ccccc3n2)cc1 (stereo unspecified) | 14.2 µM
O=C(CN1CC[n+]2c(-c3cccs3)csc21)c1ccc(-c2ccccc2)cc1 | 33.7 µM
O=C(Oc1c(Br)cc([N+](=O)[O-])cc1Br)c1cccnc1 | 46.5 µM
CCOc1ccc(OCCSc2nc3ccccc3[nH]2)cc1 | 106 µM
COc1cc(/C=N/N=C(N)N)ccc1OCc1ccc(Cl)cc1 | 36.7 µM
NC1=NC[C@H](Cc2ccccc2)N1CCCCC1CCCCC1 | 36.1 µM
N/C(=N\N=C/c1ccc(F)cc1)N/N=C\c1ccc(F)cc1 | 75.1 µM
NC1=NC[C@H](c2ccccc2)N1CCc1cc(C(F)(F)F)cc(C(F)(F)F)c1 | 55.9 µM
O=c1[nH]c2ccccc2n2c(=S)[nH]nc12 | 68.5 µM
O=C(Nc1cccc(Cl)c1)Nc1nccs1 | 55.3 µM
CC1(CC(=O)N/N=C/c2cc([N+](=O)[O-])c(O)cc2O)OCCO1 | 38.4 µM
c1cnc2c(c1)ccc1cccnc12 | 33.7 µM and 131 µM
O=C(CNC(=O)c1cccc(F)c1)N/N=C/c1ccc([N+](=O)[O-])s1 | 23.8 µM
C/C(=N\NC(=O)c1ccc(Cl)cc1)c1ccccn1 | 48.3 µM
COc1cc(Br)cc(/C=N/c2ncn[nH]2)c1O | 81.3 µM
CN1CCC(OC(=O)c2cccc(Br)c2)CC1 | 120 µM
CC[C@H]1OC(=O)C[C@@H](O)[C@H](C)[C@@H](O[C@@H]2O[C@H](C)C[C@H](N(C)C)[C@H]2O)[C@@H](CC=O)C[C@@H](C)C(=O)C=C[C@]2(C)O[C@H]2[C@@H]1C | 9.29 µM
COc1ccc2nc(NC(=O)C3CC(=O)N(c4ccccc4)C3)sc2c1 (stereo unspecified) | 107 µM
Cc1cc([N+](=O)[O-])cc(/C=N\NC(=O)C2COc3ccccc3O2)c1O (stereo unspecified) | 23.3 µM
O=C(N/N=C/c1cc([N+](=O)[O-])ccc1O)c1cccc2cc[nH]c12 | 91.6 µM
Cc1ccc(NC(=O)CSC(N)=O)cc1Cl | 33.4 µM
O=C1CN(/N=C/c2ccc([N+](=O)[O-])o2)C(=O)N1 | 32.2 µM

Compound | IC50
O=C(NNC(=S)NC(=O)c1ccccc1)c1ccc(O)cc1 | 71.1 µM
Cc1ccc(CNCCC2=CCCCC2)cc1 | 81.9 µM
O/N=C/c1ccc(OCc2ccccc2)c(Cl)c1 | 130 µM
COc1c(N2CCN(C(=S)NCc3ccccc3)C(C)C2)c(F)cc2c(=O)c(C(=O)O)cn(C3CC3)c12 (stereo unspecified) | 10.8 µM
CCCCCCCCNC(C)C(O)c1ccc(SC(C)C)cc1 (stereo unspecified) | 41.8 µM
COc1ccc(C(=O)NC(=S)NNC(=O)c2cnccn2)cc1OC | 60.1 µM
Oc1cccc(Nc2nc(NCC3CCCO3)c3ccccc3n2)c1 (stereo unspecified) | 77.3 µM
CCCCOc1ccc(C(=O)OC2CC(C)N(C)CC2C)cc1 (stereo unspecified) | 41.7 µM
Cc1cc(C)c(NC(=O)C[N+](C)(C)CC(O)COc2cccc3ccccc23)c(C)c1 (stereo unspecified) | 75.9 µM
CCOC(=O)C1Nc2c(F)cc(C)cc2C2c3ccccc3CC12 (stereo unspecified) | 136 µM
CCOC(=O)c1c(-c2ccccc2)oc2ccc(OCC(O)CNCCN(C)C)cc12 (stereo unspecified) | 80.2 µM
CC(C)(C)CC(C)(C)c1ccc(OCCOCC[N+](C)(C)Cc2ccccc2)cc1 | 34.9 µM
CCn1cc(C(=O)O)c(=O)c2cc(F)c(N3CCN(C(=S)Nc4ccccc4OC)CC3)cc21 | 6.7 µM
O=C(N/N=C/c1cc(Br)ccc1O)c1ccncc1 | 29.9 µM
Cc1cc(OCCCCCN2CCCC2)ccc1Cl | 112 µM
Cc1cc(OCCCCCNCCO)cc(C)c1Cl | 147 µM
N=c1n(CCN2CCCCC2)c2ccccc2n1CC(O)c1ccc(Cl)c(Cl)c1 (stereo unspecified) | 64.1 µM
CCCCCCCCCCOC(=O)Cn1c(COc2ccccc2OC)[n+](C)c2ccccc21 | 25.4 µM
CC(C)(C)/C(O)=C/c1nc2cc(Cl)ccc2oc1=O | 11.2 µM

From PubChem BioAssay AID1985 (Southern Research Specialized Biocontainment Screening …, 2009)
